Assay [1] has as its target T1, Cholecystokinin receptor type A (Rattus norvegicus, UniProt P30551).
T1 sequence (P30551 whole entry): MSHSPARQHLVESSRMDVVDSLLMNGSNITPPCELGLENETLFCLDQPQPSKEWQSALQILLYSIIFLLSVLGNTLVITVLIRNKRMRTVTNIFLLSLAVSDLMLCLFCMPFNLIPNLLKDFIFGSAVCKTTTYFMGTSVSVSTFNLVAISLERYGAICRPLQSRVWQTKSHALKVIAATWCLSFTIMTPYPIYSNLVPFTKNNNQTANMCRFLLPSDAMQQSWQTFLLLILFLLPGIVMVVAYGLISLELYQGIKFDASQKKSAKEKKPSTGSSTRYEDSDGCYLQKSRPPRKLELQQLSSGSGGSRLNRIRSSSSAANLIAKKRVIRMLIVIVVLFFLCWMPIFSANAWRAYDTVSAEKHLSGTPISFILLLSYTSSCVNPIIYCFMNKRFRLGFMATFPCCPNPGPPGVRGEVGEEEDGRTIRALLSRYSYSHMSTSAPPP
The experiment in a line: Compound was evaluated for the inhibition of […] I-CCK-8 binding at Cholecystokinin type A receptor in rat pancreatic membranes. The format is cell membranes, Membrane.

The target of assay [2] is T2, Cholecystokinin receptor type A (Rattus norvegicus) (UniProt P30551).
T2 sequence (whole entry): T1 sequence (P30551 whole entry)
The experiment in a line: Compound was evaluated for the inhibition of […] I-CCK-8 binding at Cholecystokinin type A receptor in rat pancreatic membranes at 10 e -8 M. The following applies: Membrane. The format is cell membranes.

For assay [3], the target named is Cholecystokinin receptor (Homo sapiens) (UniProt P32239+P32238). The experiment in a line: Ratio of inhibitory activity of CCK-A to CCK-B was reported. The format is protein assay.
A short description of assay [4]: Compound was evaluated for the inhibition of […] I-CCK-8 binding at Cholecystokinin type B receptor on guinea pig cerebral cortical membranes.

Chain of Cholecystokinin receptor (Homo sapiens) (P32238 whole entry, looked up): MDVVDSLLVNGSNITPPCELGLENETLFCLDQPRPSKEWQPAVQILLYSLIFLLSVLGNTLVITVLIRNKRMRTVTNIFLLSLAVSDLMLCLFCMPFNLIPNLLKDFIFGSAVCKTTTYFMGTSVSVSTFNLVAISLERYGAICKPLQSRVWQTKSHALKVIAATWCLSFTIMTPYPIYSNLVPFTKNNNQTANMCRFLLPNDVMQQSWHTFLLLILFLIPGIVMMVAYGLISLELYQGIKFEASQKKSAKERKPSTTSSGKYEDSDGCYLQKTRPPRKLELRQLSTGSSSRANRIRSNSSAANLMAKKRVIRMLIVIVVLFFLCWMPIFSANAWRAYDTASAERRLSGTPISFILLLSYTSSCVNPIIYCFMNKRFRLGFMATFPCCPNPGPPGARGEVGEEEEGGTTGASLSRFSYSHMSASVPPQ
Chain of Cholecystokinin receptor (Homo sapiens) (P32239 whole entry, looked up): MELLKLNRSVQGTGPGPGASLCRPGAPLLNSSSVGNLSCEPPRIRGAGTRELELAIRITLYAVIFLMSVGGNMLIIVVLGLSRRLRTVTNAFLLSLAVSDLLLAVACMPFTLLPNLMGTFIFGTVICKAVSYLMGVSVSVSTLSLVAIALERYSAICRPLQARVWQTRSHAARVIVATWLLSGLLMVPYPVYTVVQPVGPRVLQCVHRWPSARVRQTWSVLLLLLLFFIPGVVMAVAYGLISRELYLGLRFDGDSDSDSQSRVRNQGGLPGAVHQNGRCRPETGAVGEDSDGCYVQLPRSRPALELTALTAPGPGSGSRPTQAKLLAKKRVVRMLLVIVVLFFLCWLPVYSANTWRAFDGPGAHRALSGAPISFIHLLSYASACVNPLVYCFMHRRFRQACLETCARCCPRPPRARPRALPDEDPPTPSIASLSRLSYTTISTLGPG

One may read the IC50 as the concentration that inhibits the measured activity by half. Read a low IC50 as greater potency in that assay. `CCc1cccc2c1N(CC(=O)N1CC3CCC(CC3)C1)C(=O)C(NC(=O)Nc1cccc(-c3nnn[nH]3)c1)N=C2c1ccccc1F` (centres undefined) showed an IC50 in assay [1] of 18 nM. On the same count and under the same terms, as for `O=C(Nc1cccc(-c2nnn[nH]2)c1)NC1N=C(c2ccccc2F)c2cccc(Cl)c2N(CC(=O)N2CC3CCC(CC3)C2)C1=O` (centres undefined), the figure is 13 nM.

By inhibition is commonly meant how much of the control response was suppressed. Higher therefore signals strong suppression. For `CC(C)c1cccc2c1N(CC(=O)N1CC3CCC(CC3)C1)C(=O)C(NC(=O)Nc1cccc(-c3nn[nH]n3)c1)N=C2c1ccccc1F` (centres undefined), the inhibition in assay [2] amounted to 12.2%. For `CCc1cccc2c1N(CC(=O)N1CC3CCC(CC3)C1)C(=O)C(NC(=O)Nc1cccc(-c3nn[nH]n3)c1)N=C2c1ccccc1F` (centres undefined), in assay [3], the Ratio stood at 22.

Regarding `O=C(Nc1cccc(-c2nn[nH]n2)c1)NC1N=C(c2ccccc2F)c2ccccc2N(CC(=O)N2CC3CCC(CC3)C2)C1=O` (centres undefined), in assay [3], the Ratio is 710.

`O=C(Nc1cccc(-c2nn[nH]n2)c1)NC1N=C(c2ccccc2F)c2cccc(Cl)c2N(CC(=O)N2CC3CCC(CC3)C2)C1=O` (centres undefined): the Ratio in assay [3] amounted to 20. The compound `O=C(Nc1cccc(-c2nnn[nH]2)c1)NC1N=C(c2ccccc2F)c2ccccc2N(CC(=O)N2CC3CCC(CC3)C2)C1=O` (centres undefined) registered a 50% inhibitory concentration (IC50) in assay [1] of 62 nM. Turning to `Cc1cccc2c1N(CC(=O)N1CC3CCC(CC3)C1)C(=O)C(NC(=O)Nc1cccc(-c3nn[nH]n3)c1)N=C2c1ccccc1F` (centres undefined), the Ratio in assay [3] turned out to be 21. This compound also returned an IC50 in assay [4] of 0.68 nM.

For the origin of these results see ChEMBL document CHEMBL1130831, “Relationship between dihedral angles of N1 and C9 substituents in 1,4-benzodiazepines and dual cholecystokinin-A and -B antagonistic activities” (Bioorg Med Chem Lett, 1998).
